Measured values from patent publication US20250170129A1, “SENOTHERAPEUTIC AGENTS AND ALPHA-KLOTHO POLYPEPTIDES” (Mayo Foundation for Medical Education and Researc, priority 2022, published 2025).

Assays:
Format in all cases: in vivo, mouse
α-Klotho [1] = assay: Clearance of p16Ink4a-expressing cells / senolytics in old INK-ATTAC mice, α-Klotho in kidney, urine, brain; conditions: 10 mg/kg i.p.
Description: AP20187 (10 mg/kg) or vehicle was administered i.p. every 2 weeks for 6 weeks. […] FIG. 3B) Kidney α-Klotho mRNA was assayed by qPCR. One-way ANOVA, F=4.81, p=0.01, R^2=0.46; *p=0.03, **p<0.01. FIG. 3C) α-Klotho protein was assayed relative to GAPDH (Western blots in FIG. 13). One-way ANOVA: F=4.81, p=0.01, R^2=0.46; *p<0.05, ****p<0.0001. FIG. 3D) Mouse urine was collected 2 days after the last dose of AP20187. Urinary α-Klotho was assayed by ELISA and expressed as a function of creatinine. One-way ANOVA, F=61.53, p<0.00001, R^2=0.90; *p=0.04, ****p<0.0001. Choroid Plexus (FIG. 3E) α-Klotho protein was assayed by immunofluorescence. One-way ANOVA, F=20.98, R^2=0.80, **p<0.01, ****p<0.0001. Hippocampal (FIG. 3F) and cerebellar (FIG. 3G) α-Klotho mRNA was assayed by qPCR. […] Means±SEM; one-way ANOVA and post hoc Tukey's tests; F=3.84, p=0.038, R^2=0.40; *p=0.04 in (FIG. 3F); *p=0.04, F=7.87, p<0.01, R^2=0.60; *p=0.03 in (FIG. 3G); F=10.85; p<0.001, R^2=0.64; *p=0.03, ***p<0.0001 in (FIG. 3H); F=5.49; p=0.01, R^2=0.49; *p<0.05, **p=0.01 in (FIG. 3I).
Old (25-26-month-old) INK-ATTAC male mice were treated with vehicle or AP20187 or D+Q (n=7). AP20187 or D+Q or vehicle was administered every 2 weeks for 6 weeks. Mouse urine was collected 5 days after the last dose of AP20187 or D+Q. Urinary α-Klotho was assayed by ELISA and expressed as a function of creatinine (FIG. 10A) or Cystatin C (FIG. 10B). One-way ANOVA, A: *p=0.038, **p=0.0066, B: *p=0.048, **p=0.0048.
INK-ATTAC mice were as described elsewhere (Baker et al., Nature, 479(7372):232-6 (2011)). Briefly, in INK-ATTAC mice, the ATTAC gene is driven by a senescence-related p16^Ink4a promoter fragment. The fusion protein product of the ATTAC “suicide” gene contains a mutated FKBP moiety that can be cross-linked by AP20187, thereby activating the ATTAC protein caspase-8 moieties, causing apoptosis. […]
Each cDNA sample was generated by reverse transcription using 1 μg RNA following the manufacturer's protocol (Thermo Fisher Scientific). […] Data were analysed by the ΔΔCt method. […]

IL-1α = IL-1α mRNA in hippocampus of old INK-ATTAC mice (qPCR); conditions: 10 mg/kg i.p. (FIG. 3I)
Description: (§1) FIGS. 3A-3I. Genetic clearance of highly p16^Ink4a-expressing cells increases α-Klotho. Young (8-month-old) or old (27-29-month-old) INK-ATTAC male mice were treated with vehicle or AP20187 (n=3 young+vehicle; n=3 young+AP20187; n=7 old+vehicle; n=7 old+AP20187) to dimerize the FKBP-caspase-8 fusion protein expressed in highly p16^Ink4a-expressing cells to selectively eliminate […]. AP20187 (10 mg/kg) or vehicle was administered i.p. every 2 weeks for 6 weeks. FIG. 3A) Schematic view of treatments. FIG. 3B) Kidney α-Klotho mRNA was assayed by qPCR. One-way ANOVA, F=4.81, p=0.01, R^2=0.46; *p=0.03, **p<0.01. FIG. 3C) α-Klotho protein was assayed relative to GAPDH (Western blots in FIG. 13). One-way ANOVA: F=4.81, p=0.01, R^2=0.46; *p<0.05, ****p<0.0001. FIG. 3D) Mouse urine was collected 2 days after the last dose of AP20187. Urinary α-Klotho was assayed by ELISA and expressed as a function of creatinine. One-way ANOVA, F=61.53, p<0.00001, R^2=0.90; *p=0.04, ****p<0.0001. Choroid Plexus (FIG. 3E) α-Klotho protein was assayed by immunofluorescence. […]
(§2) Each cDNA sample was generated by reverse transcription using 1 μg RNA following the manufacturer's protocol (Thermo Fisher Scientific). […] Data were analysed by the ΔΔCt method.
(§3) Next, it was determined if removal of p16^Ink4a-expressing cells, many of which are senescent, increases α-Klotho in old mice. […]

activin A = assay: Activin A mRNA in kidney of old INK-ATTAC mice (qPCR); conditions: 10 mg/kg i.p. (FIG. 3H)
Description: as §1, §2, §3

α-Klotho [2] = assay: Senolytics / AP20187 in young INK-ATTAC mice, kidney and urinary α-Klotho; conditions: young (3-month-old) INK-ATTAC mice; Dasatinib (5 mg/kg) plus Quercetin (50 mg/kg) or AP20187 (10 mg/kg) (FIG. 12A)
Description: FIGS. 12A-12B. […] 3-month-old female INK-ATTAC mice were treated with vehicle, Dasatinib (5 mg/kg) plus Quercetin (50 mg/kg), or AP20187 (10 mg/kg). FIG. 12A) Kidneys were harvested and lysed to assay α-Klotho protein by Western blotting. FIG. 12B) Urinary α-Klotho in the same cohort was assayed by ELISA after a second and third treatment with senolytic agents and expressed as a function of creatinine.
α-Klotho was assayed by ELISA in 1:100 diluted mouse urine (IBL America, #27601). Human urine α-Klotho was assayed by ELISA (IBL America, #27998, RRID:AB_2750859). Urine α-Klotho measurements are expressed as a function of urine volume, creatinine (R&D Systems, #KGE005), and/or cystatin C (R&D Systems, #MSCTC0).
Tissue extracts were homogenized using a Bead Mill 24 homogenizer (Waltham) and lysed in NETN buffer (20 mM Tris-HCl, pH 8.0, 100 mM NaCl, 1 mM EDTA, 0.5% Nonidet P-40), 5 mM NaF, a protease inhibitor cocktail (Millipore Sigma), and 5 mM nicotinamide. After incubating 30 minutes at 4° C., samples were centrifuged at 15,000 rpm for 10 minutes at 4° C. Protein concentrations of the supernatants were determined by the Bradford protein assay (BioRad). Lysates were separated by SDS-PAGE and transferred by electrophoresis to PVDF membranes (Millipore Sigma). […]

CC[C@H](C(=O)N1CCCC[C@H]1C(=O)O[C@H](CCc1ccc(OC)c(OC)c1)c1cccc(OCC(=O)NCC(CNC(=O)COc2cccc([C@@H](CCc3ccc(OC)c(OC)c3)OC(=O)[C@@H]3CCCCN3C(=O)[C@@H](CC)c3cc(OC)c(OC)c(OC)c3)c2)CN(C)C)c1)c1cc(OC)c(OC)c(OC)c1 [AP20187]
urinary α-Klotho (ELISA, function of creatinine) (α-Klotho [1]; vs vehicle (FIG. 3D, FIG. 10)): increased | Kidney α-Klotho (mRNA by qPCR, protein by Western blot) (α-Klotho [1]; vs vehicle (FIGS. 3B-C)): increased | Brain α-Klotho (choroid plexus protein IF; hippocampal and cerebellar mRNA) (α-Klotho [1]; vs vehicle (FIGS. 3E-G)): increased | IL-1α in brains (hippocampus mRNA, qPCR) (IL-1α): decreased | activin A in kidneys (mRNA, qPCR) (activin A): decreased | kidney α-Klotho (protein, Western blotting) (α-Klotho [2]): did not increase
